Consider four molecules from paper PMC2858410 (The Journal of comparative neurology, 2008).

Experiment [1] deals with T1, human α2A-adrenergic receptor (hα2A; αh2A) (Homo sapiens, UniProt P08913).
T1 sequence (P08913 1-465): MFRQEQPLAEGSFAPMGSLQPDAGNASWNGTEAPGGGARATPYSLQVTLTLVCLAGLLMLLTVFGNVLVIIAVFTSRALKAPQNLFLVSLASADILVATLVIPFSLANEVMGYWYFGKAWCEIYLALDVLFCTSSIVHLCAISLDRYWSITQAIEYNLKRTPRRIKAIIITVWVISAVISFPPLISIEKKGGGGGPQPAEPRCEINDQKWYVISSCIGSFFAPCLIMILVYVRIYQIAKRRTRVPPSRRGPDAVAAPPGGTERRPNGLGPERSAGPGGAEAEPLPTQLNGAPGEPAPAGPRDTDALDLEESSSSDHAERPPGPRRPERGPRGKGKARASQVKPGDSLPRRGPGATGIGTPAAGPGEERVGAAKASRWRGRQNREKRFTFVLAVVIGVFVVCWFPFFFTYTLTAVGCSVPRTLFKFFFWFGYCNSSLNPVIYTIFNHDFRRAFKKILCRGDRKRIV
Briefly: radioligand binding, filtration, Sf9 membranes. The following applies: labelled compound, […]; […] Tris-HCl pH […] MgCl2, […] EDTA; […] h.

Experiment [2] concerns the target T1, human α2A-adrenergic receptor (hα2A; αh2A). Briefly: [3H]RX821002 displacement, filtration, Sf9 membranes. It is filed as binding. As to conditions: […] [3H]RX821002; […] Tris-HCl pH […] MgCl2, […] EDTA.

For the molecule `COC1(C2=NCCN2)COc2ccccc2O1` (stereo not shown) [RX821002], in experiment [1], the “radioligand binding, filtration, Sf9 membranes” value is “[^3H]RX821002 binding was concentration-dependently inhibited by increasing concentrations of both norepinephrine and dopamine”.

`CN1CCc2cc(Cl)c(O)cc2[C@@H](c2ccccc2)C1` [SCH-23390]: the “[3H]RX821002 displacement, filtration, Sf9 membranes” value (“[3H]RX821002 displacement” below) in experiment [2] was “apomorphine, SCH-23390 and clozapine display a substantial affinity for α2a-adrenergic receptors”.

Take `CN1CCc2cccc3c2[C@H]1Cc1ccc(O)c(O)c1-3` [apomorphine]: the “[3H]RX821002 displacement” value in experiment [2] is “apomorphine, SCH-23390 and clozapine display a substantial affinity for α2a-adrenergic receptors”.

Regarding `CN1CCN(C2=Nc3cc(Cl)ccc3Nc3ccccc32)CC1` [clozapine], the “[3H]RX821002 displacement” value in experiment [2] is “apomorphine, SCH-23390 and clozapine display a substantial affinity for α2a-adrenergic receptors”.
